Results reported in patent publication US5948780A, “Method for treating and preventing heart failure and ventricular dilatation” (priority 1997, dated 1999).

Columns and labels:
[1] = tested on: MMP; test: MMP inhibitory activity of plasma from treated pigs, artificial MMP substrate; format: biochemical
Protocol: (§1) The MMP inhibitor chosen for these studies was Compound A as above. A single oral dose of 10 mg/kg of Compound A was administered in one pig, and a second pig was simultaneously administered a single 10 mg/kg dose of the MMP inhibitor intravenously. Plasma samples were serially collected from the chronically placed arterial access ports. Plasma levels of the MMP inhibitor were determined by the degree of hydrolysis of the MMP substrate thiopeptolide Ac-Pro-Leu-Gly-thioester-Leu-Leu-Gly=OEt. […] A pharmacokinetic profile was constructed using these initial data, and it was predicted that an oral delivery of 20 mg/kg/day of Compound A would provide significant MMP plasma inhibitory activity at trough levels. Accordingly, the 3 pigs underwent 20 mg/kg QD-AM of treatment with Compound A for 5 days. In order to confirm adequate MMP inhibitory activity, plasma was collected prior to the AM dose with each day of treatment. […] Thus, a practical dosing regiment of Compound A was established which provided stable plasma MMP inhibitory activity in the animal model to be used in the present study.

[2] = tested on: cardiac myocytes; test: cardiac myocyte length after pacing, first study; format: in vivo, pig
Protocol: A study was performed in four pigs in which atrial pacemakers were implanted. Heart failure was induced by chronic rapid pacing (i.e., increasing heart rate to 240 beats per minute). Echocardiographic assessment of cardiac function, chamber dimensions, and structure was performed prior to the initiation of pacing, and following 1 and 3 weeks of rapid pacing. Previous studies have shown that 1 week of rapid atrial pacing represents an early timepoint in the development of heart failure in which cardiac dilation is evident, but there is no significant effect on left ventricular (LV) systolic function. […]
MMP-Inhibitor efficacy in treating heart failure was defined as stopping cardiac dilation, preserving cardiac function, and reducing cardiac myocyte lengthening. Cardiac dilation was assessed by measuring changes in the end-diastolic dimension between the left ventricular free wall and left ventricular septum. Cardiac function was also measured using m-mode echocardiography by calculating the percent fraction shortening, or in other words, how well the left ventricle of the heart pumped blood into the circulation. Cellular remodelling was measured by isolating cardiac myocytes using a standard collagenase digestion procedure and measuring cell length using digital photomicroscopy. […]

[3] = tested on: isolated LV myocytes; test: isolated myocyte contractile function with pacing induced congestive heart failure (Table IV); conditions: Rapid Pacing + MMPi, 20 mg/kg QD
Protocol: Following completion of the 21-day protocol, a final set of LV function measurements were performed and plasma collected. Following steady-state LV function measurements, 35 cc of blood was drawn from the arterial access port into chilled tubes containing EDTA (1.5 mg/mL). The blood samples were immediately centrifuged (2000 g, 10 min, 4° C.), the plasma decanted into separate tubes, frozen in a dry ice/methanol bath, and stored at -80° C. until the time of assay. The animals were then anesthetized as described in the preceding section, a sternotomy performed, and the heart quickly extirpated and placed in a phosphate buffered ice slush. The great vessels, atria, and right ventricle were carefully trimmed away, and the LV weighed. The region of the LV free wall incorporating the circumflex artery (5×5 cm) was excised and prepared for myocyte isolation. The region of the left ventricular free wall comprising the left anterior descending artery (3×5 cm) was cannulated and prepared for perfusion fixation.
Myocytes were isolated from the LV free wall as follows. The left circumflex coronary artery was perfused with a collagenase solution (0.5 mg/mL, Worthington, type II; 146 U/mg) for 35 minutes. The tissue was then minced into 2 mm sections and gently agitated. After 15 minutes, the supernatant was removed, filtered, and the cells allowed to settle. The myocyte pellet (5×10^4 cells/mL) was then resuspended in standard cell culture media (M199, Gibco Laboratories, Grand Island, N.Y.). […] Viable myocytes were defined as those cells which retained a rod shape, were calcium tolerant, responded to electrical stimulation, and excluded trypan blue. Isolated myocyte function was examined using a thermostatically controlled chamber (37° C.) containing a volume of 2.5 mL and two stimulating platinum electrodes to image the isolated myocytes on an inverted microscope (Axiovert IM35, Zeiss Inc., Germany). A 20× long working distance Hoffmann Modulation Contrast objective (Modulation Optics Inc., Greenvale, N.Y.) was used to image the myocytes. Myocyte contractions were elicited by field stimulating the tissue chamber at 1 Hz (S11, Grass Instruments, Quincy, Mass.) using current pulses of 5 msec duration and voltages 10% above contraction threshold. Myocyte motion signals were captured and input through an edge detector system (Crescent Electronics, Sandy, Utah). The distance between the left and right myocyte edges was converted into a voltage signal, digitized, and input to a computer (80386; ZBV2526, Zenith Data Systems, St. Joseph, Mich.) for analysis. Parameters computed from the digitized contraction profiles include percent shortening, velocity of shortening, velocity of relengthening, time to peak contraction, and duration of contraction.
Indices of LV and myocyte function were compared between the three treatment groups using multi-way analysis of variance (ANOVA). For comparisons of LV function with each week of pacing, an ANOVA for repeated measures was used. […] For comparisons of neurohormonal profiles, the Student-Neuman-Kuells test was employed. The categorical scores obtained from the histomorphometric studies were compared between groups using the Chi-Square analysis. All statistical procedures were performed using the BMDP statistical software package (BMDP Statistical Software Inc., Los Angeles, Calif.). […] Values of p<0.05 were considered to be statistically significant.

[4] = tested on: catalytic domain of stromelysin; test: plasma MMP inhibitory activity (thiopeptolide hydrolysis), stromelysin; format: biochemical; conditions: plasma after 10 mg/kg oral administration
Protocol: as §1

[5] = tested on: pacing-induced heart failure model; test: pacing-induced heart failure in pigs, first study (echocardiography); format: in vivo, pig
Protocol: A study was performed in four pigs in which atrial pacemakers were implanted. Heart failure was induced by chronic rapid pacing (i.e., increasing heart rate to 240 beats per minute). Echocardiographic assessment of cardiac function, chamber dimensions, and structure was performed prior to the initiation of pacing, and following 1 and 3 weeks of rapid pacing. Previous studies have shown that 1 week of rapid atrial pacing represents an early timepoint in the development of heart failure in which cardiac dilation is evident, but there is no significant effect on left ventricular (LV) systolic function. Two pigs were dosed with the MMP-inhibitor 2-(4'-bromobiphenyl-4-sulfonylamino)-3-methylbutyric acid (Compound A) (20 mg/kg/day) which was given once a day orally. This dosage was selected based upon pharmacokinetic data in which this dosage regimen would provide minimal steady state plasma levels of 10 μM Compound A. One pig dosed with Compound A was sacrificed at the end of 1 week of pacing, and the second pig was paced for a full 3 weeks. At the end of 3 weeks, pigs were euthanized and the heart removed. Cardiac myocytes were isolated from a portion of the left ventricle to measure changes in cell length.
MMP-Inhibitor efficacy in treating heart failure was defined as stopping cardiac dilation, preserving cardiac function, and reducing cardiac myocyte lengthening. Cardiac dilation was assessed by measuring changes in the end-diastolic dimension between the left ventricular free wall and left ventricular septum. Cardiac function was also measured using m-mode echocardiography by calculating the percent fraction shortening, or in other words, how well the left ventricle of the heart pumped blood into the circulation. Cellular remodelling was measured by isolating cardiac myocytes using a standard collagenase digestion procedure and measuring cell length using digital photomicroscopy. To confirm plasma drug levels of the MMP-inhibitor, plasma was collected prior to dosing on each day of the pacing protocol.

[6] = tested on: MMPs; test: MMP inhibition at trough plasma level in pigs; conditions: 20 mg/kg/day oral
[7] = in vivo; set-up: species or system Yorkshire pigs; conditions: pig, po, 10 mg/kg
Protocol: In a similar study, three Yorkshire pigs (22-25 kg, male, Hambone Farms, S.C.) were chronically instrumented in order to measure arterial blood pressure in the conscious state. The pigs were anesthetized with isoflurane (3%/1.5 L/min) and a mixture of nitrous oxide and oxygen (50:50), intubated with a cuffed endotracheal tube and ventilated at a flow rate of 22 mL/kg/minute, and a respiratory rate of 15/minute. A left thoracotomy was performed, and the thoracic aorta at the location of the hemi-azygous crossover exposed. A catheter connected to a vascular process port (Model GPV, 9F, Access Technologies, Skokie, Ill.) was placed in the aorta and sutured in place. The access port was buried in a subcutaneous pocket over the thoracolumbar fascia. Following a recovery period of 7 to 10 days, the animal was returned to the laboratory for baseline studies. […] The vascular access port was entered using a 12-gauge Huber needle (Access Technologies, Skokie, Ill.) and basal, resting arterial pressure and heart rate were recorded. […]
The MMP inhibitor chosen for these studies was Compound A as above. […] Plasma levels of the MMP inhibitor were determined by the degree of hydrolysis of the MMP substrate thiopeptolide Ac-Pro-Leu-Gly-thioester-Leu-Leu-Gly=OEt. […]

[8] = tested on: gelatinases; test: plasma MMP inhibitory activity (thiopeptolide hydrolysis), gelatinases; format: biochemical; conditions: plasma after 10 mg/kg oral administration
Protocol: as §1

[9] = tested on: MI-rat (coronary artery ligation) heart failure model; test: ischemic model of heart failure (MI-rat), Compound A dose-response; format: in vivo; set-up: LVV at LVEDP: unit not given here; conditions: for LVEDP / LVV at LVEDP / dp/dt MAX: 6 weeks
[10] = 20 mg/kg/day oral, paced 21 days
[11] = 20 mg/kg/day oral, paced 7 days
[12] = Paced + Compound A group, baseline

**Q.** Which “plasma MMP inhibitory activity” value ([1]; pig, 20 mg/kg QD for 5 days, pre-dose plasma) does the source give for `CC(C)C(NS(=O)(=O)c1ccc(-c2ccc(Br)cc2)cc1)C(=O)O` (stereo not shown) [Compound A, 2-(4'-bromobiphenyl-4-sulfonylamino)-3-methylbutyric acid] here?
**A.** The value was “significant plasma MMP inhibitory activity was observed”.

**Q.** What about the “reduction of in vitro MMP activity by plasma” value ([1]; plasma after 3 days of treatment, 20 mg/kg QD, artificial MMP substrate) of the same compound?
**A.** Its value is “over 100%”.

**Q.** And the “Cardiac Myocyte Length” value [2, 10]?
**A.** Its value is 170 μms.

**Q.** And the “increase in cardiac myocyte cell length” value ([2]; 3 weeks of pacing)?
**A.** The value was 19%.

**Q.** What about the “Percent Shortening” value ([3]; 7 mM calcium) of the same compound?
**A.** Its value is 5.6 ± 0.5%.

**Q.** What about the “Relengthening Velocity” value ([3]; 7 mM calcium) of the same compound?
**A.** Its value is 78 ± 5 μm/s.

**Q.** What about the “Resting Length” value ([3]; 7 mM calcium) of the same compound?
**A.** Its value is 156 ± 5 μm.

**Q.** And the “Shortening Velocity” value ([3]; 7 mM calcium)?
**A.** Its value is 84 ± 7 μm/s.

**Q.** What about the “Time to 50% Relaxation” value ([3]; 7 mM calcium) of the same compound?
**A.** Its value is 102 ± 5 ms.

**Q.** What about the “Time to Peak Contraction” value ([3]; 7 mM calcium) of the same compound?
**A.** The value was 240 ± 3 ms.

**Q.** And the “Total Duration” value ([3]; 7 mM calcium)?
**A.** Its value is 476 ± 10 ms.

**Q.** What about the “Percent Shortening” value ([3]; […] nM isoproterenol) of the same compound?
**A.** The value was 5.1 ± 0.5%.

**Q.** What about the “Relengthening Velocity” value ([3]; […] nM isoproterenol) of the same compound?
**A.** The value was 80 ± 11 μm/s.

**Q.** And the “Resting Length” value ([3]; […] nM isoproterenol)?
**A.** The value was 161 ± 3 μm.

**Q.** And the “Shortening Velocity” value ([3]; […] nM isoproterenol)?
**A.** Its value is 108 ± 11 μm/s.

**Q.** What about the “Time to 50% Relaxation” value ([3]; […] nM isoproterenol) of the same compound?
**A.** The value was 104 ± 6 ms.

**Q.** And the “Time to Peak Contraction” value ([3]; […] nM isoproterenol)?
**A.** The value was 175 ± 2 ms.

**Q.** What about the “Total Duration” value ([3]; […] nM isoproterenol) of the same compound?
**A.** Its value is 433 ± 12 ms.

**Q.** What about the “Percent Shortening” value ([3]; baseline) of the same compound?
**A.** Its value is 2.2 ± 0.1%.

**Q.** And the “Relengthening Velocity” value ([3]; baseline)?
**A.** The value was 26 ± 2 μm/s.

**Q.** And the “Resting Length” value ([3]; baseline)?
**A.** The value was 169 ± 4 μm.

**Q.** What about the “Shortening Velocity” value ([3]; baseline) of the same compound?
**A.** The value was 31 ± 2 μm/s.

**Q.** And the “Time to 50% Relaxation” value ([3]; baseline)?
**A.** The value was 131 ± 5 ms.

**Q.** And the “Time to Peak Contraction” value ([3]; baseline)?
**A.** Its value is 244 ± 7 ms.

**Q.** And the “Total Duration” value ([3]; baseline)?
**A.** Its value is 498 ± 9 ms.

**Q.** What about the “reduction in activity against the catalytic domain of stromelysin” value [4] of the same compound?
**A.** The value was roughly 50%.

**Q.** And the “End-Diastolic Dimension” value [5, 11]?
**A.** The value was 3.6 ± 0.2 cm.

**Q.** And the “Fractional Shortening” value [5, 11]?
**A.** Its value is 33 ± 3%.

**Q.** What about the “Heart Rate” value [5, 11] of the same compound?
**A.** Its value is 120 ± 3 BPM.

**Q.** What about the “LV Stress” value [5, 11] of the same compound?
**A.** Its value is 50 ± 4 g/cm2.

**Q.** And the “End-Diastolic Dimension” value [5, 10]?
**A.** Its value is 4.3 cm.

**Q.** And the “Fractional Shortening” value [5, 10]?
**A.** Its value is 22%.

**Q.** And the “decrease in cardiac function (fractional shortening)” value ([5]; 3 weeks of pacing)?
**A.** Its value is 39%.

**Q.** What about the “increase in cardiac dilation (left ventricular end-diastolic dimension)” value ([5]; 3 weeks of pacing) of the same compound?
**A.** Its value is 26%.

**Q.** What about the “End-Diastolic Dimension” value [5, 12] of the same compound?
**A.** Its value is 3.4 ± 0.2 cm.

**Q.** And the “Fractional Shortening” value [5, 12]?
**A.** The value was 36 ± 3%.

**Q.** What about the “Heart Rate” value [5, 12] of the same compound?
**A.** The value was 105 ± 4 BPM.

**Q.** And the “LV Stress” value [5, 12]?
**A.** The value was 46 ± 3 g/cm2.

**Q.** What about the “left ventricular end-diastolic volume versus control values” ([5]; first week of pacing) of the same compound?
**A.** The value was “remained unchanged from control values”.

**Q.** What about the “left ventricular wall stress versus control values” ([5]; first week of pacing) of the same compound?
**A.** The value was “remained unchanged from control values”.

**Q.** What about the “fractional shortening, change” value ([5]; following 1 week of pacing) of the same compound?
**A.** Its value is “unchanged”.

**Q.** What about the “inhibition of MMPs at trough level” value [6] of the same compound?
**A.** The value was “a level great enough to inhibit all MMPs tested”.

**Q.** What about the bioavailability at 4 h [7] of the same compound?
**A.** Its bioavailability at 4 h is roughly 100%.

**Q.** And the “reduction in activity against the gelatinases” value [8]?
**A.** Its value is roughly 50%.

**Q.** What about the LVEDP ([9]; 0.005 mg/kg/day in chow) of the same compound?
**A.** Its LVEDP is 20 ± 4 mm Hg.

**Q.** What about the “LVV at LVEDP” value ([9]; 0.005 mg/kg/day in chow) of the same compound?
**A.** The value was 650 ± 96.

**Q.** What about the “dp/dt MAX” value ([9]; 0.005 mg/kg/day in chow) of the same compound?
**A.** The value was 5900 ± 474 mm Hg/sec.

**Q.** What about the LVEDP ([9]; 0.05 mg/kg/day in chow) of the same compound?
**A.** Its LVEDP is 16 ± 3 mm Hg.

**Q.** What about the “LVV at LVEDP” value ([9]; 0.05 mg/kg/day in chow) of the same compound?
**A.** Its value is 622 ± 72.

**Q.** What about the “dp/dt MAX” value ([9]; 0.05 mg/kg/day in chow) of the same compound?
**A.** The value was 6553 ± 331 mm Hg/sec.

**Q.** What about the LVEDP ([9]; 0.5 mg/kg/day in chow) of the same compound?
**A.** The LVEDP was 20 ± 3 mm Hg.

**Q.** And the “LVV at LVEDP” value ([9]; 0.5 mg/kg/day in chow)?
**A.** The value was 751 ± 65.

**Q.** And the “dp/dt MAX” value ([9]; 0.5 mg/kg/day in chow)?
**A.** Its value is 5997 ± 351 mm Hg/sec.

**Q.** What about the LVEDP ([9]; 5 mg/kg/day in chow) of the same compound?
**A.** Its LVEDP is 16 ± 3 mm Hg.

**Q.** And the “LVV at LVEDP” value ([9]; 5 mg/kg/day in chow)?
**A.** Its value is 647 ± 66.

**Q.** And the “dp/dt MAX” value ([9]; 5 mg/kg/day in chow)?
**A.** The value was 6357 mm Hg/sec.

**Q.** What about the “LV function as measured by dP/dt MAX” value ([9]; 3 highest doses) of the same compound?
**A.** The value was “significantly improved LV function”.

**Q.** And the LV dilation ([9]; every dose (0.005-5 mg/kg/day in chow))?
**A.** Its LV dilation is “significantly reduced LV dilation at every dose”.
